Patent US10610564B2, “IRGM and precision autophagy controls for antimicrobial and inflammatory disease states and methods of detection of autophagy” (STC.UNM, priority 2015, dated 2020)

Assays:
[1] = test system: NOD2; experiment: Western blot of NOD2 levels in HEK293T cells co-expressing GFP-IRGM and Flag-NOD2; assay type: cell-based; settings: Bafilomycin A1 100 nM for 8 h
Description: (A) Effects of IRGM expression on NOD2 levels in transfected HEK293T cells. Data, means±SE; *, p<0.05 (Student's unpaired t test). (B) Lysates of HEK293T cell co-expressing GFP or GFP-IRGM and Flag-NOD2, untreated/treated with Bafilomycin A1 (100 nM for 8 h) were subjected to Western blotting. (C) Lysates of cells co-expressing Flag-NOD2 and GFP, GFP-IRGM, or GFP-IRGM-K^mut were subjected to Western blotting. (D, E) Lysates from HEK293T cells co-expressing Myc-ULK1 and either GFP or increasing amounts of GFP-IRGM were subjected to Western blotting as in (D) with the relative abundance of Myc-ULK1 shown in (E). Blot was processed (dashed vertical line) to remove irrelevant lanes. (F) HEK293T cells transfected with plasmids encoding GFP, GFP-IRGM, or GFP-IRGM-K^mut and either Myc-ULK1 or Flag-Beclin 1 were lysed and subjected to Western blotting. Data from densitometric analyses of Western blots (B, C, E), means±SE, n=3*, p<0.05 (ANOVA). (G) Depiction of the role of IRGM ubiquitination in NOD2 degradation and ULK1 stabilization. See also FIG. 13.

[2] = test system: NLRP3, NLRP1, pro-caspase 1, TRIM20; experiment: Levels of inflammasome components and GFP-TRIM20 in cells expressing GFP-TRIM20 after autophagy induction (EBSS); assay type: cell-based; settings: EBSS 3 h, with bafilomycin A1
Description: (§1) (A) Levels of NLRP3 were determine in lysates from THP-1 cells subjected to TRIM20 or Scr siRNA were activated with 1,000 U/mL IFN-γ for 3 h, and 2.5 μg/mL LPS for 2 h (for optimal TRIM20 expression; Supplementary FIG. 24B). RI, relative intensity. (B) Levels of NLRP3 were determined from THP-1 subjected to TRIM20 or control knockdown and treated or not with bafilomycin A1 (Baf A1). (C) The abundance of NLRP3 protein was determined from THP-1 cells subjected to TRIM20 or control knockdown and exposed to Escherichia coli strain LF82 and IFN-γ in the presence or absence of bafilomycin. (D) The abundance of NLRP3 protein was determined from primary human MDMs subjected to TRIM20 or control knockdown and exposed to LPS and IFN-γ in the presence or absence of bafilomycin. (E) Levels of NLRP3 were determined from THP-1 cells subjected to ULK1, Beclin 1, or Scr siRNA were treated with IFN-γ and LPS. (F-H) Levels of NLRP3 (F), NLRP1 (G), or pro-capsase 1 (H) were determined in cells expressing GFP or GFP-TRIM20 following autophagy induction (EBSS, 3 h) in the presence or absence of bafilomycin A1. Data, means±SE, n≥3, *P<0.05, ^†P≥0.05 (ANOVA).
(A) Co-immunoprecipitation analysis of deletion variants of TRIM20 (as GFP fusions; asterisks denote fusion products on the bottom blot) with NLRP3 in HEK293 cells. (B) THP-1 cells were treated with IFN-γ for 3 h, additionally treated with 2.5 μg/ml of LPS for indicated periods, and TRIM20 mRNA levels were determined by quantitative PCR. […] (C and D) Levels of NLRP3 were determined in lysates from THP-1 cells subjected to TRIM20 or Scr siRNA were (C) untreated either IFN-γ or LPS, or (D) LPS alone for 2 h. (E) THP-1 cells were treated with 1.0 μg/ml of LPS for 3 h, and levels of NLRP3 in lysate were determined by immunoblots. (F) Knockdown efficacies of ULK1 and Beclin 1 by siRNA were examined by quantitative RT-PCR. (G and H) Levels of GFP-TRIM20 were determined in cells co-expressing (G) with or (H) without NLRP3 following autophagy induction (EBSS, 3 h) in the presence or absence of bafilomycin A1. […]

[3] = test system: NLRP3; experiment: NLRP3 levels by immunoblot in THP-1 cells; assay type: cell-based, human; settings: THP-1 cells treated with IFN-γ and LPS, with or without bafilomycin A1
Description: as §1, with “Data, means±SE, n≥3, *P<0.05, ^†P≥0.05 (ANOVA).” left out
(A) Co-immunoprecipitation analysis of deletion variants of TRIM20 (as GFP fusions; asterisks denote fusion products on the bottom blot) with NLRP3 in HEK293 cells. […] (E) THP-1 cells were treated with 1.0 μg/ml of LPS for 3 h, and levels of NLRP3 in lysate were determined by immunoblots. […]

[4] = test system: dimerized IRF3; experiment: IRF3 dimerization assay (native PAGE) in THP-1 cells; assay type: cell-based, human; settings: HT-DNA and IFN-γ, with bafilomycin
From the text: (A) Confocal microscopy of HeLa cells co-expressing mCherry-TRIM21, Flag-IRF3, and GFP-LC3B in the presence of bafilomycin A1. White outline, cell boundary. Arrows indicate the colocalization. (B) Confocal microscopy of HEK293 cells co-expressing mCherry-TRIM21, Flag-IRF3, and GFP-ULK1. (C) Co-immunoprecipitation analysis of IRF3-ULK1 complexes in the presence and absence of TRIM21. Lysates from HEK293 cells transiently expressing Myc-ULK1, Flag-IRF3, and either […] or GFP were immunoprecipitated with anti-Myc, and immunoblots were probed as indicated. (D) Levels of dimerized IRF3 were assessed by native PAGE from THP-1 cells subjected to TRIM21 or control knockdown, and stimulated for 12 h by herring testis DNA (HT-DNA) transfected into the cells in the presence of 200 U/mL IFN-γ. […]
Detection of IRF3 dimerization was performed by native polyacrylamide gel electrophoresis (PAGE) as previously described (Takahasi et al., 2003). Quantitative RT-PCR was performed as previously described (Kimura et al., 2013) using the following primer sets: ULK1, ([…], […]); BECN1, ([…], […]); ACTIN, ([…], […]); TRIM1, ([…], […]); TRIM5, ([…], […]); TRIM8, ([…], […]); TRIM16, ([…], […]); TRIM20, ([…], […]); TRIM21, ([…], […]); TRIM22, ([…], […]); TRIM28, ([…], […]); TRIM56, ([…], […]); and TRIM65, ([…], […]). […]

[5] = test system: AMPK; settings: statement in figure legend; compound C used at 20, 40, 80, 160 μM; cited from earlier work

Structure (SMILES)	IRGM-promoted NOD2 degradation [1]	TRIM20 degradation in the presence of NLRP3 ([2]; GFP-TRIM20 co-expressed with NLRP3)	degradation of pro-caspase 1 and NLRP1 co-expressed with TRIM20 ([2]; cells expressing GFP-TRIM20)	destabilizing effect of TRIM20 overexpression on NLRP3 levels ([2]; cells expressing GFP-TRIM20)	NLRP3 degradation [3]	dimerized IRF3 degradation [4]	AMPK inhibition [5]
CO/C1=C\C(C)=C\[C@@H](C)[C@@H](O)[C@@H](C)C/C(C)=C/C=C/[C@H](OC)[C@@H]([C@@H](C)[C@@H](O)[C@H](C)[C@@]2(O)C[C@@H](O)[C@H](C)[C@@H](C(C)C)O2)OC1=O [bafilomycin A1]	partially blocked	protected	inhabitable	suppressed	protected NLRP3	protected dimerized IRF3 from degradation	
c1cc(-c2cnn3cc(-c4ccc(OCCN5CCCCC5)cc4)cnc23)ccn1 [Compound C]							potent inhibitor of AMPK
